Data from patent US11787850B2, “Peptidic TGF-beta antagonists” (priority 2015, dated 2023).

Experiments:
[1] = tested on: TGF-β1-induced Smad3-driven (CAGA12-lux) transcriptional activity; test: Luciferase reporter assay in HEK293-(CAGA)12 cells; format: cell-based; settings: 100 pM TGF-β1, 18 hours; for inhibition of TGF-β1-induced CAGA12-lux activity, peptide pre-treated with DMSO: 0.5% DMSO pre-treatment (FIG. 8); for inhibition of TGF-β1-induced CAGA12-lux activity, peptide in Tris buffer left untreated: no DMSO (FIG. 8)
Procedure: FIGS. 5A and 5B illustrate that some small molecular weight CD109-based peptides (Peptide A, P28, P21 and […]) inhibit TGF-β1-induced Smad3-driven transcriptional activity. […] Cell lysates were analyzed for luciferase activity and data are expressed as mean±standard deviation of relative light units (RLU). […] Under the conditions tested, peptide A, P28, P21 and P16 inhibited TGF-β1-induced transcriptional (CAGA12-lux) activity.
FIG. 6 illustrates that the small molecular weight CD109-based peptide P16 (but not P16-2, P11 or X-4) inhibit TGF-β1-induced Smad3-driven transcriptional activity. HEK293 cells stably transfected with the Smad3-responsive CAGA12-lux luciferase reporter were treated for 18 hours without (−) or with (+) […] TGF-β1 in the presence or absence of 10 nM of P16-2 (16 aa scrambled control), P11 (11 aa sequence), P16 (16 aa), X-4 (11 aa) or Tris-buffer (buffer control) as indicated. Cell lysates were analyzed for luciferase activity and data are expressed as mean±standard deviation of luciferase activity. Results are shown as luciferase activity for the peptides used.
FIG. 8 illustrates that DMSO treatment enhances the TGF-β inhibitory activity of Peptide X but not P21 or P16. HEK293 cells stably transfected with the Smad3-responsive CAGA12-lux luciferase reporter were treated for 18 hours without (−) or with (+) 100 pM TGF-β1 in the presence or absence of Peptide X (PX), P21 or P16. The peptides were previously dissolved in Tris buffer and left untreated or treated with DMSO prior to addition to the cells. Addition of Tris buffer or DMSO alone served as additional controls. Cell lysates were analyzed for luciferase activity and data are expressed as mean±standard deviation of luciferase activity. Results are shown as luciferase activity. […] P16 and P21 inhibited TGF-β1-induced CAGA12-lux activity and these effects were not enhanced by DMSO treatment. […]
FIG. 25 is a graph showing the ability of CD109-based peptides to inhibit TGF-β-induced, Smad3-driven transcriptional activity. HEK293 cells stably transfected with the Smad3-responsive CAGA12-lux luciferase reporter were treated for 18 hours without (−) or with (+) 100 pM TGF-b1 in the presence or absence of 10 nM of P16, P16.2, peptide A, P15, P14, P13, P12, P11, peptide X, P21, or 2% NH4OH buffer (buffer control) as indicated. Cell lysates were analyzed for luciferase activity and data are expressed as mean±standard deviation of luciferase activity.
HEK293 cells stably transfected with the Smad3-responsive CAGA12-lux luciferase reporter construct were incubated with dimeric or monomeric forms of peptide A as indicated and treated with 100 pM TGF-b overnight. Cell lysates were analyzed for luciferase activity. Data are presented as fold-activation compared to TGF-b1 treatment alone (scaled to 1.0). M+D, mixture of monomer and dimer.
Luciferase reporter assays were performed using a HEK293-(CAGA)12 cell line that stably expresses a TGF-β/Smad3-responsive (CAGA)12-luciferase reporter gene [Cash et al. 2013]. HEK293-(CAGA)12 cells were grown in 24-well plates to 70-80% confluency and serum-starved overnight. Cells were washed with PBS and treated with or without TGF-β1 in presence or absence of various CD109-based peptides as indicated in the figure legends. Cells were then washed twice with cold PBS and solubilized in 100 μl of Passive Lysis Buffer (Promega) for 30 min at 4° C. The cell lysates were assayed for luciferase and β-galactosidase activities using commercially available kits (BD Biosciences).
HEK293 cells stably transfected with the Smad3-responsive CAGA12-lux luciferase reporter were treated for 18 hours without (−) or with (+) 100 pM TGF-β1 in the presence or absence of 10 nM (FIG. 5A) or 5 nM (FIG. 5B) of peptide A (Pep A, 161 aa), P28 (28 aa peptide), P21 (21 aa peptide), P16 (16 aa peptide), P16.2 scrambled peptide (16 aa, scrambled P16 sequence) or Tris-buffer (negative control for peptides) as indicated. […]

[2] = Aggregation assay: Microcon 100 kDa filtration, Tricine SDS-PAGE, silver staining; format: physicochemical; settings: for aggregation state (aggregated versus soluble fraction): 50 mM Tris-HCl pH 7.0, 2 hrs at 4° C., 100 kDa cut-off; for effect of DMSO treatment on aggregation: 0.5% DMSO for 2 hrs at 4° C.
Procedure: Peptide X (X, 40 amino acids) and P16 (16 amino acids) were left untreated (−) or treated with 0.5% DMSO (+) for 2 hrs at 4° C. The aggregated and non-aggregated soluble fractions were then separated using a Microcon™ centrifugal filtration device (Millipore), with a molecular weight cut-off of 100 kDa. This device allows passage of molecules <100 kDa through the filter but retains larger molecules (aggregates). The aggregated (FIG. 1A—left panel) and soluble (FIG. 1B—right panel) fractions were then separated by 17% Tricine-SDS gel electrophoresis and peptides detected by silver staining. In the conditions tested, multiple bands with various staining intensities were detected in peptide X aggregated fraction and two of these bands were decreased with DMSO treatment (A—left panel, arrows) leading to an increase in the amount of soluble peptide X (B—right panel, arrow, lane 2 versus 3). […] (A-B) Lane 1: Molecular weight marker. Lanes 2-5: samples.
Aggregation assay. Soluble peptides were separated from aggregates and precipitates by filtration. The molecular weight cut-off of the filter was chosen such that soluble protein was allowed to pass through the filter, while aggregate forms were retained. Peptide X and P16 previously dissolved in 50 mM Tris-HCl (pH=7.0) were left untreated or treated with 0.5% dimethyl sulfoxide (DMSO) for 2 hours at 4° C. Soluble protein was then separated from aggregated protein using a Microcon™ concentrator (Millipore), with a molecular weight cut-off of 100 kDa. The Microcon was spun in a desktop centrifuge at 16,000×g for 15 min. Aggregated protein retained on the membrane was resuspended in H2O, pipetting repeatedly across the membrane to ensure that as much protein as possible was removed. Aliquots of soluble protein and aggregated protein were each mixed with 5× sample buffer (250 mM Tris-HCl, 40% glycerol, 140 mM SDS, 0.6 M β-mercaptoethanol, pH 6.8) and heated to 85-90° C. for 10 min prior to Tricine SDS-PAGE. Samples were analyzed by 17% Tricine SDS-PAGE and peptides visualized by silver staining. Aggrescan Analysis
Peptide X (X, 40 amino acids) and P16 (16 amino acids) were left untreated (−) or treated with 0.5% DMSO (+) for 2 hrs at 4° C. The aggregated and non-aggregated (soluble) fractions were then separated using a Microcon centrifugal filtration device (Millipore), with a molecular weight cut-off of 100 kDa. This device allows passage of molecules less than 100 kDa through the filter but retains larger molecules (aggregates). The aggregated and soluble fractions were then separated by 17% Tricine-SDS gel electrophoresis and peptides visualized by silver staining.

Sequence: ETWIWLDTNMGSRIYQ [Peptide P16]
- inhibition of TGF-β1-induced CAGA12-lux activity, peptide pre-treated with DMSO [1]: not enhanced
- inhibition of TGF-β1-induced CAGA12-lux activity, peptide in Tris buffer left untreated [1]: inhibited
- aggregation state (aggregated versus soluble fraction) [2]: aggregated only to a minor extent
- effect of DMSO treatment on aggregation [2]: not altered by DMSO treatment

Sequence: LGSSPHVRKHFPETWIWLDTNMGSRIYQEFEVTVPDSITS (Peptide X)
- inhibition of TGF-β1-induced CAGA12-lux activity, peptide pre-treated with DMSO [1]: inhibited
- inhibition of TGF-β1-induced CAGA12-lux activity, peptide in Tris buffer left untreated [1]: did not
- aggregation state (aggregated versus soluble fraction) [2]: existed predominantly in aggregated form
- effect of DMSO treatment on aggregation [2]: partially decreased
